This is an account of results in US5468734A, “Prophylactic and remedial preparation for diseases attendant on hyperglycemia, and wholesome food” (Godo Shusei Co., Ltd., priority 1992, dated 1995).

Experiment [1] deals with T1, sucrase (carbohydrase derived from rabbit small intestine mucous membrane) (Oryctolagus cuniculus, UniProt P07768).
T1 construct: suspended again in a 10 mM potassium phosphate buffer (pH: 7.0), thereby obtaining a crude enzyme suspension; from tissue; host or cells: rabbit small intestine (title: mucous membrane), homogenate, 60,000×g precipitate
T1 sequence (P07768 1008-1827 limits assumed): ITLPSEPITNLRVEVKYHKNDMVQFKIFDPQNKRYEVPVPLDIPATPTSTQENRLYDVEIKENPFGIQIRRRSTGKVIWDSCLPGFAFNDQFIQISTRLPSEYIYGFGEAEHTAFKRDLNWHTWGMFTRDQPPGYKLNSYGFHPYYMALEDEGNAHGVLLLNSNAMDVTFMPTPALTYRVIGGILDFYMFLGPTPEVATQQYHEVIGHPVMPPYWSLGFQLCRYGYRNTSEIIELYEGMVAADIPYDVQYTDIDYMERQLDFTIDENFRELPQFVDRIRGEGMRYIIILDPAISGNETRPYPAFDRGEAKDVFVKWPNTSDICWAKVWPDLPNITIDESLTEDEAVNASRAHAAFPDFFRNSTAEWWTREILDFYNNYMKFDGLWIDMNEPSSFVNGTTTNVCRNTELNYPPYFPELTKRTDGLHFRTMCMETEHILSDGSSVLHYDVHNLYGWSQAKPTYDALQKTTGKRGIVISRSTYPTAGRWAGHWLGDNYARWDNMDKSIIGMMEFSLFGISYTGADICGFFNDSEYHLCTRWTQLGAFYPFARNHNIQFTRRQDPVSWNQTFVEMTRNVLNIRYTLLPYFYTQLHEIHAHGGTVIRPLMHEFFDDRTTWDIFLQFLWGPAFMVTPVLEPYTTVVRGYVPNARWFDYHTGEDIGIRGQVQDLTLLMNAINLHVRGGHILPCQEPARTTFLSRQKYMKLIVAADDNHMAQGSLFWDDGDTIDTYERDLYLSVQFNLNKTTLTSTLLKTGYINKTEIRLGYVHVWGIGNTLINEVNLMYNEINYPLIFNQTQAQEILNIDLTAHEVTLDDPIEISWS
T1 sequence (P07768 2-1007 partner limits assumed): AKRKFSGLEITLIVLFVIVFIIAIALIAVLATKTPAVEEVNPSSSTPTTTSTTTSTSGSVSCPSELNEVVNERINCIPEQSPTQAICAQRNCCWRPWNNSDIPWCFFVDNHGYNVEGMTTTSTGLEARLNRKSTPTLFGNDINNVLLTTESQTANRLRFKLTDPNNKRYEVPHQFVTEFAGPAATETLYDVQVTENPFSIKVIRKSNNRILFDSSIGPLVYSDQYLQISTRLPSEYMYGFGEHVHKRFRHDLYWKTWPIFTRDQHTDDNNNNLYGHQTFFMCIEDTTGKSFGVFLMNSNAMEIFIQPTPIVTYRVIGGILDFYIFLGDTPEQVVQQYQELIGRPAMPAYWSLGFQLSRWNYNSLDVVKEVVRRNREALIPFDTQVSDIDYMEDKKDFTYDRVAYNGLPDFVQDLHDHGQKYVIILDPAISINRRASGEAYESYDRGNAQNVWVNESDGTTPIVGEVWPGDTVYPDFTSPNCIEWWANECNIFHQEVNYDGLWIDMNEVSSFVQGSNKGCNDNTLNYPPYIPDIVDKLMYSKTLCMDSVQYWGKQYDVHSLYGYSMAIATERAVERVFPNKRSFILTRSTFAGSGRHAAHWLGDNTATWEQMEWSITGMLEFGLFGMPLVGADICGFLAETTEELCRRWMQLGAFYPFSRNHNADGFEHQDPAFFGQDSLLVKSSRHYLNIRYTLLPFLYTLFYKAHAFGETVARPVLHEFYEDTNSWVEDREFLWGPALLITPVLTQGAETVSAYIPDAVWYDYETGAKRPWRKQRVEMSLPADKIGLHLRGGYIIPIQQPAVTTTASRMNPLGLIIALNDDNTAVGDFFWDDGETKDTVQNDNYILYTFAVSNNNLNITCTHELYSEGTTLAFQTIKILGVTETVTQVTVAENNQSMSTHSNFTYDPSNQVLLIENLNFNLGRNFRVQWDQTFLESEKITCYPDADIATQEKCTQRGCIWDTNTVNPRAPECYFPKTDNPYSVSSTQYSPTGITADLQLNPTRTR
The experiment is described as follows: Action to inhibit the hydrolytic activity of homogenate prepared from rabbit small intestine mucous membrane: sucrase inhibition. The format is biochemical. The settings on record: for inhibition at 2000 µg/mL / inhibition at 500 µg/mL / inhibition at 1000 µg/mL / inhibition at 4000 µg/mL: 0.25 h. Here is the method: (§1) (Action to inhibit the hydrolytic activity of homogenate prepared from rabbit small intestine mucous membrane to carbohydrate)
(§2) A native kind of white rabbits (weight: 3.0-3.5 kg) were sacrificed by exsanguination to take out their small intestines.
(§3) After freezing and thawing the small intestines thus taken out, they were homogenized in a 5 mM EDTA buffer (pH: 7.0) and subjected to centrifugation for 60 minutes at 60,000×g. Precipitate thus formed was collected and suspended again in a 10 mM potassium phosphate buffer (pH: 7.0), thereby obtaining a crude enzyme suspension.
(§4) Sucrose (20 mM) and maltose (20 mM) were used as substrates.
(§5) Each reaction mixture was formulated so as to contain 350 microliters of a 100 mM maleate buffer (pH: 6.8), 100 microliters of a substrate solution, 50 microliters of the crude enzyme suspension and 50 microliters of a test solution. Substances to be tested were separately dissolved in a maleate buffer (pH: 6.8) before use.
(§6) Respective reactions were conducted for 15 minutes at 37° C.

Experiment [2] concerns maltase (carbohydrase derived from rabbit small intestine mucous membrane). Kind of experiment: Action to inhibit the hydrolytic activity of homogenate prepared from rabbit small intestine mucous membrane: maltase inhibition. The following applies: for Maltase inhibition rate: substrate maltose 20 mM, pH 6.8, 37° C., 15 minutes. Type of experiment: biochemical. Here is the method: as §1, §2, §3, §4, §5, §6

Setting [3] is: 200 mg/dl, substrate sucrose 20 mM, pH 6.8, 37° C., 15 minutes, read-out: Sucrase inhibition rate.
The mark [4] stands for this setting: pH 6.8, read-out: Sucrase inhibition rate.

Read-outs that look alike come from different tables or passages of the source.

The term inhibition denotes the change of the read-out against control, counted positive when it falls. As to `OC[C@H]1O[C@@H](O[C@H]2[C@H](O)[C@@H](O)C(O)O[C@@H]2CO)[C@H](O)[C@@H](O)[C@@H]1O` (stereo partly shown) [Cellobiose, reference compound], the inhibition at 2000 µg/mL in experiment [1] (setting [3]) is -0.4%. The Maltase inhibition rate in experiment [2] (200 mg/dl) came to 2.8%.

For `O=C[C@@H](O)[C@H](O)[C@H](O)CO` [D-Arabinose, D-arabinose, reference compound], the “sucrase-inhibiting action (in words)” value in experiment [1] is reported as “no or little inhibiting action”. The inhibition at 500 µg/mL in experiment [1] (50 mg/dl, substrate sucrose 20 mM, pH 6.8, 37° C., 15 minutes, read-out: Sucrase inhibition rate) is 4%. The inhibition at 1000 µg/mL in experiment [1] (100 mg/dl, substrate sucrose 20 mM, pH 6.8, 37° C., 15 minutes, read-out: Sucrase inhibition rate) came to 6.8%. Besides, in experiment [1] (setting [3]), the inhibition at 2000 µg/mL came out at 11.7%. For the same molecule, the “maltase-inhibiting action (in words)” value in experiment [2] was “no or little inhibiting action”. Further, the Maltase inhibition rate in experiment [2] (200 mg/dl) is 7.8%.

`C[C@@H](O)[C@H](O)[C@H](O)[C@@H](O)C=O` [D-Fucose, D-fucose, reference compound]: the “sucrase-inhibiting action (in words)” value in experiment [1] is “no or little inhibiting action”. Further, the inhibition at 2000 µg/mL in experiment [1] (setting [3]) amounted to 8.7%. In experiment [2], the “maltase-inhibiting action (in words)” value is reported as “no or little inhibiting action”. The Maltase inhibition rate in experiment [2] (200 mg/dl) came out at 4.1%.

With `N[C@H]1C(O)O[C@H](CO)[C@H](O)[C@@H]1O` (stereo partly drawn) [D-Galactosamine, D-galactosamine, reference compound], the “sucrase-inhibiting action (in words)” value in experiment [1] was “no or little inhibiting action”. Besides, in experiment [1] (setting [3]), the inhibition at 2000 µg/mL was -6.5%. For the same molecule, the “maltase-inhibiting action (in words)” value in experiment [2] is given as “no or little inhibiting action”. In addition, the Maltase inhibition rate in experiment [2] (200 mg/dl) is on record as -4.5%.

`O=C[C@H](O)[C@@H](O)[C@@H](O)[C@H](O)CO` [D-Galactose, D-galactose, reference compound]: the “sucrase-inhibiting action (in words)” value in experiment [1] is reported as “no or little inhibiting action”. In experiment [1] (setting [4]), the inhibition at 500 µg/mL is -0.6%, the inhibition at 1000 µg/mL is -0.9%, the inhibition at 2000 µg/mL was determined as 6.4% and the inhibition at 4000 µg/mL was 20.2%. Further, the “maltase-inhibiting action (in words)” value in experiment [2] is “no or little inhibiting action”. Moreover, the Maltase inhibition rate in experiment [2] (50 mg/dl) was -0.8%. The Maltase inhibition rate in experiment [2] (100 mg/dl) came to 13.9%. In addition, the Maltase inhibition rate in experiment [2] (200 mg/dl) was found to be 15.3%. In addition, the Maltase inhibition rate in experiment [2] (400 mg/dl) is recorded as 11.8%.

On to `O=C[C@@H](O)[C@@H](O)[C@H](O)[C@H](O)CO` [D-Mannose, D-mannose, reference compound], for which the “sucrase-inhibiting action (in words)” value in experiment [1] is recorded as “no or little inhibiting action”. The inhibition at 500 µg/mL in experiment [1] (setting [4]) is -0.7%. Also, the inhibition at 1000 µg/mL in experiment [1] (setting [4]) was found to be 12.9%. In addition, in experiment [1] (setting [4]), the inhibition at 2000 µg/mL is 19.3%. For the same molecule, in experiment [1] (setting [4]), the inhibition at 4000 µg/mL worked out at 27.8%. Besides, in experiment [2], the “maltase-inhibiting action (in words)” value is on record as “no or little inhibiting action”. The Maltase inhibition rate in experiment [2] (50 mg/dl) was 3.2%; in experiment [2] (100 mg/dl) it was 10.6%; in experiment [2] (200 mg/dl) it was 25.1%; in experiment [2] (400 mg/dl), 30.4%.

For the molecule `O=C[C@@H](O)[C@@H](O)[C@@H](O)[C@H](O)CO` [D-Talose, D-talose, reference compound], the “sucrase-inhibiting action (in words)” value in experiment [1] is recorded as “no or little inhibiting action”. The inhibition at 2000 µg/mL in experiment [1] (setting [4]) was 5.4%. Moreover, the “maltase-inhibiting action (in words)” value in experiment [2] is listed as “no or little inhibiting action”. The Maltase inhibition rate in experiment [2] (200 mg/dl) is 5.3%.

Consider `OC[C@H]1O[C@@H](OC[C@H]2OC(O)[C@H](O)[C@@H](O)[C@@H]2O)[C@H](O)[C@@H](O)[C@@H]1O` (stereo partly shown) [Gentiobiose, reference compound], for which, in experiment [1] (setting [3]), the inhibition at 2000 µg/mL was -2.4%. Also, the Maltase inhibition rate in experiment [2] (200 mg/dl) came to 1.9%.

`O=C[C@H](O)[C@H](O)[C@@H](O)CO` [L-Lyxose, L-lyxose, reference compound]: the “sucrase-inhibiting action (in words)” value in experiment [1] was “no or little inhibiting action”. Further, the inhibition at 2000 µg/mL in experiment [1] (setting [3]) was -0.2%. Further, in experiment [2], the “maltase-inhibiting action (in words)” value is “no or little inhibiting action”. In experiment [2] (200 mg/dl), the Maltase inhibition rate turned out to be 10.0%.

Consider `O=C(CO)[C@@H](O)[C@H](O)[C@@H](O)CO` [L-Sorbose, L-sorbose, reference compound], for which the “sucrase-inhibiting action (in words)” value in experiment [1] is on record as “no or little inhibiting action”. The inhibition at 2000 µg/mL in experiment [1] (setting [3]) stood at 5.1%. In addition, in experiment [2], the “maltase-inhibiting action (in words)” value is reported as “no or little inhibiting action”. In experiment [2] (200 mg/dl), the Maltase inhibition rate came to 7.5%.

In the case of `O=C(CO)[C@H](O)[C@@H](O)CO` [L-Xylulose, L-xylulose, reference compound], the “sucrase-inhibiting action (in words)” value in experiment [1] is on record as “no or little inhibiting action”. Moreover, in experiment [1] (setting [3]), the inhibition at 2000 µg/mL was 10.8%. In addition, the “maltase-inhibiting action (in words)” value in experiment [2] is “no or little inhibiting action”. Besides, the Maltase inhibition rate in experiment [2] (200 mg/dl) worked out at 6.4%.

Regarding `OC[C@H]1O[C@@H](O[C@H]2[C@H](O)[C@H](O)C(O)O[C@@H]2CO)[C@@H](O)[C@@H](O)[C@@H]1O` (stereo partly shown) [reference compound], the inhibition at 2000 µg/mL in experiment [1] (setting [3]) is 0.9%. Besides, the Maltase inhibition rate in experiment [2] (200 mg/dl) turned out to be 0.6%.

For the molecule `OC[C@H]1O[C@@H](O[C@H]2[C@H](O)[C@H](O)[C@H](O[C@H]3[C@H](O)[C@H](O)C(O)O[C@@H]3CO)O[C@@H]2CO)[C@@H](O)[C@@H](O)[C@@H]1O` (stereo partly shown) [reference compound], in experiment [1] (setting [3]), the inhibition at 2000 µg/mL worked out at 2%. In addition, the Maltase inhibition rate in experiment [2] (200 mg/dl) is 1.3%.

With `OC[C@H]1O[C@@H](O[C@H]2[C@H](O)[C@H](O)[C@H](O[C@H]3[C@H](O)[C@H](O)[C@H](O[C@H]4[C@H](O)[C@H](O)C(O)O[C@@H]4CO)O[C@@H]3CO)O[C@@H]2CO)[C@@H](O)[C@@H](O)[C@@H]1O` (stereo partly shown) [reference compound], the inhibition at 2000 µg/mL in experiment [1] (setting [3]) is -0.3%. Moreover, in experiment [2] (200 mg/dl), the Maltase inhibition rate came out at 0.7%.

For `OC1OC[C@@H](O[C@@H]2OC[C@@H](O)[C@H](O)[C@H]2O)[C@H](O)[C@H]1O` (stereo partly shown) [reference compound], the inhibition at 2000 µg/mL in experiment [1] (setting [3]) worked out at 10.7%. Further, the Maltase inhibition rate in experiment [2] (200 mg/dl) is 5.5%.

Consider `OC1OC[C@@H](O[C@@H]2OC[C@@H](O[C@@H]3OC[C@@H](O)[C@H](O)[C@H]3O)[C@H](O)[C@H]2O)[C@H](O)[C@H]1O` (stereo partly shown) [reference compound], for which the inhibition at 2000 µg/mL in experiment [1] (setting [3]) stood at 2.7%. For the same molecule, the Maltase inhibition rate in experiment [2] (200 mg/dl) was found to be 3.6%.

As for `OC1OC[C@@H](O[C@@H]2OC[C@@H](O[C@@H]3OC[C@@H](O[C@@H]4OC[C@@H](O)[C@H](O)[C@H]4O)[C@H](O)[C@H]3O)[C@H](O)[C@H]2O)[C@H](O)[C@H]1O` (stereo partly shown) [reference compound], the inhibition at 2000 µg/mL in experiment [1] (setting [3]) is 3.5%. The Maltase inhibition rate in experiment [2] (200 mg/dl) was determined as 2.0%.

With `OC1OC[C@@H](O[C@@H]2OC[C@@H](O[C@@H]3OC[C@@H](O[C@@H]4OC[C@@H](O[C@@H]5OC[C@@H](O)[C@H](O)[C@H]5O)[C@H](O)[C@H]4O)[C@H](O)[C@H]3O)[C@H](O)[C@H]2O)[C@H](O)[C@H]1O` (stereo partly shown) [reference compound], the inhibition at 2000 µg/mL in experiment [1] (setting [3]) is -0.5%. Besides, in experiment [2] (200 mg/dl), the Maltase inhibition rate is given as 1.5%.

`OC1OC[C@@H](O[C@@H]2OC[C@@H](O[C@@H]3OC[C@@H](O[C@@H]4OC[C@@H](O[C@@H]5OC[C@@H](O[C@@H]6OC[C@@H](O)[C@H](O)[C@H]6O)[C@H](O)[C@H]5O)[C@H](O)[C@H]4O)[C@H](O)[C@H]3O)[C@H](O)[C@H]2O)[C@H](O)[C@H]1O` (stereo partly shown) [reference compound]: the inhibition at 2000 µg/mL in experiment [1] (setting [3]) is -7.9%. Moreover, the Maltase inhibition rate in experiment [2] (200 mg/dl) was -5.1%.
